Reference: ChEMBL document CHEMBL1201862, “PubChem BioAssay data set” (2004)
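Each compound was tested at five concentrations against cells in 96-well plates for 48 hours. At the GI50, growth is halved.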 The source made the active and inactive calls. Cut-off read from the data, not from the text of the source: active = GI50 up to about 1.1 µM and inactive = higher.

Key:
Experiment in all cases: inhibition of tumour cell growth, NCI panel, 48 h
MDA-MB-231 = test system: MDA-MB-231
HT-29 = test system: HT-29
OVCAR-3 = test system: OVCAR-3
SR = test system: SR
SF-268 = test system: SF-268
Malme-3M = test system: Malme-3M
786-0 = test system: 786-0
UACC-257 = test system: UACC-257
SK-MEL-2 = test system: SK-MEL-2
HCT-116 = test system: HCT-116
SK-OV-3 = test system: SK-OV-3
CAKI-1 = test system: CAKI-1
NCI-H460 = test system: NCI-H460
NCI/ADR-RES = test system: NCI/ADR-RES
COLO 205 = test system: COLO 205
HCC 2998 = test system: HCC 2998
SF-295 = test system: SF-295
DU-145 = test system: DU-145
LOX IMVI = test system: LOX IMVI
SK-MEL-28 = test system: SK-MEL-28

Structure (SMILES) | GI50 (MDA-MB-231) | GI50 (HT-29) | GI50 (OVCAR-3) | GI50 (SR) | GI50 (SF-268) | GI50 (Malme-3M) | GI50 (786-0) | GI50 (UACC-257) | GI50 (SK-MEL-2) | GI50 (HCT-116) | GI50 (SK-OV-3) | GI50 (CAKI-1) | GI50 (NCI-H460) | GI50 (NCI/ADR-RES) | GI50 (COLO 205) | GI50 (HCC 2998) | GI50 (SF-295) | GI50 (DU-145) | GI50 (LOX IMVI) | GI50 (SK-MEL-28)
COc1ccc(/C=C/C(=O)Oc2ccc(/C=C3\CCCCC3=O)cc2)cc1 | 40.9 µM (inactive) | 6.28 µM (inactive) | > 100 µM (inactive) | > 100 µM (inactive) | 8 µM (inactive) | > 79.1 µM (inactive) | > 100 µM (inactive) | > 67.8 µM (inactive) | > 100 µM (inactive) | 9.33 µM (inactive) | > 100 µM (inactive) | > 100 µM (inactive) | > 100 µM (inactive) | > 57.4 µM (inactive) | 19.5 µM (inactive) | > 39.1 µM (inactive) | 18.4 µM (inactive) | > 100 µM (inactive) | > 100 µM (inactive) | > 100 µM (inactive)
CCOC(=O)c1csc(NC(=O)CN2CCN(C)CC2)n1 | > 100 µM (inactive) | > 100 µM (inactive) | > 100 µM (inactive) | > 100 µM (inactive) | – | > 100 µM (inactive) | – | > 100 µM (inactive) | > 100 µM (inactive) | – | > 100 µM (inactive) | > 100 µM (inactive) | > 100 µM (inactive) | > 100 µM (inactive) | > 100 µM (inactive) | > 100 µM (inactive) | > 100 µM (inactive) | > 100 µM (inactive) | > 100 µM (inactive) | > 100 µM (inactive)
CCOC(=O)C(NC(=O)CC)(Nc1ccccc1F)C(F)(F)F (stereo not drawn) | > 100 µM (inactive) | > 100 µM (inactive) | > 100 µM (inactive) | > 100 µM (inactive) | > 100 µM (inactive) | – | – | > 100 µM (inactive) | > 100 µM (inactive) | > 100 µM (inactive) | > 100 µM (inactive) | > 100 µM (inactive) | > 100 µM (inactive) | 99.3 µM (inactive) | > 100 µM (inactive) | > 100 µM (inactive) | > 100 µM (inactive) | > 100 µM (inactive) | > 100 µM (inactive) | > 100 µM (inactive)
CCCCOCn1c(=O)[nH]c(=O)c2cc(Br)ccc21 | 33.8 µM (inactive) | 23.4 µM (inactive) | 45.9 µM (inactive) | 46.2 µM (inactive) | – | – | 53.3 µM (inactive) | 43.9 µM (inactive) | 40.2 µM (inactive) | 38.5 µM (inactive) | > 100 µM (inactive) | 20.8 µM (inactive) | – | 19.1 µM (inactive) | 72.1 µM (inactive) | > 100 µM (inactive) | 54.6 µM (inactive) | > 100 µM (inactive) | 58.5 µM (inactive) | > 100 µM (inactive)
O=C1N(Cc2ccccc2)C2CSCC2N1Cc1ccccc1 (stereo not drawn) | 12.1 µM (inactive) | 16.7 µM (inactive) | 10.4 µM (inactive) | 37.2 µM (inactive) | 31.1 µM (inactive) | 13.5 µM (inactive) | – | 24.8 µM (inactive) | 16.7 µM (inactive) | 36.4 µM (inactive) | 27.4 µM (inactive) | 30.8 µM (inactive) | 18.3 µM (inactive) | 24.5 µM (inactive) | 16.8 µM (inactive) | 26.5 µM (inactive) | 37.3 µM (inactive) | 50.9 µM (inactive) | 30.2 µM (inactive) | 37.7 µM (inactive)
CC(C)OP(=O)(OC(C)C)c1c(N)n[nH]c1Nc1ccccc1 | > 100 µM (inactive) | > 100 µM (inactive) | > 100 µM (inactive) | > 100 µM (inactive) | > 100 µM (inactive) | > 100 µM (inactive) | – | > 100 µM (inactive) | > 100 µM (inactive) | – | > 100 µM (inactive) | > 100 µM (inactive) | > 100 µM (inactive) | > 100 µM (inactive) | > 100 µM (inactive) | > 100 µM (inactive) | > 100 µM (inactive) | > 100 µM (inactive) | > 100 µM (inactive) | > 100 µM (inactive)
CC1OC(OC2C(OC3CCC4(C)C(CCC5(C)C4CC=C4C6CC(C)(C)CCC6(C(=O)O)CCC45C)C3(C)CO)OCC(O)C2O)C(O)C(O)C1O (stereo not drawn) | 17.9 µM (inactive) | 15.5 µM (inactive) | 27.3 µM (inactive) | 3.33 µM (inactive) | 17.1 µM (inactive) | 19.3 µM (inactive) | 30.7 µM (inactive) | 18.5 µM (inactive) | 17.7 µM (inactive) | 7.4 µM (inactive) | 18.1 µM (inactive) | 18.5 µM (inactive) | 19 µM (inactive) | 20.9 µM (inactive) | 20.8 µM (inactive) | 13.4 µM (inactive) | 15.1 µM (inactive) | 18.9 µM (inactive) | 11.1 µM (inactive) | 6.37 µM (inactive)
CC1(O)CC23CC(O)C4(O)C(CC(O)C4(C)C)C(C)(O)C2CCC1C3O (stereo not drawn) | > 100 µM (inactive) | > 100 µM (inactive) | – | > 100 µM (inactive) | > 100 µM (inactive) | > 100 µM (inactive) | > 100 µM (inactive) | > 100 µM (inactive) | > 100 µM (inactive) | > 100 µM (inactive) | > 100 µM (inactive) | > 100 µM (inactive) | > 100 µM (inactive) | > 100 µM (inactive) | > 100 µM (inactive) | > 100 µM (inactive) | > 100 µM (inactive) | > 100 µM (inactive) | > 100 µM (inactive) | > 100 µM (inactive)
C[C@]12C=CC(=O)C=C1CC[C@@H]1[C@@H]2CC[C@@]2(C)[C@H]1CC[C@]2(O)C(N)=O | > 100 µM (inactive) | > 100 µM (inactive) | > 100 µM (inactive) | > 100 µM (inactive) | > 100 µM (inactive) | > 100 µM (inactive) | > 100 µM (inactive) | 50.8 µM (inactive) | > 100 µM (inactive) | > 100 µM (inactive) | > 100 µM (inactive) | – | > 100 µM (inactive) | > 100 µM (inactive) | > 100 µM (inactive) | > 100 µM (inactive) | > 100 µM (inactive) | > 100 µM (inactive) | > 100 µM (inactive) | > 100 µM (inactive)
CCNCC(=O)O[C@]1(CC)C(=O)OCc2c1cc1n(c2=O)Cc2cc3ccccc3nc2-1 | 6.71 µM (inactive) | 0.889 µM (active) | 2.07 µM (inactive) | < 0.0118 µM (active) | 0.0767 µM (active) | 1.49 µM (inactive) | 0.0455 µM (active) | 0.585 µM (active) | 2.77 µM (inactive) | 0.342 µM (active) | 0.258 µM (active) | 0.0559 µM (active) | 0.0277 µM (active) | 0.114 µM (active) | 1.69 µM (inactive) | 1.04 µM (active) | 0.0586 µM (active) | 0.0465 µM (active) | 0.0893 µM (active) | 3.56 µM (inactive)
COc1ccc(N2C(=O)C3c4[nH]c5ccccc5c4C4CCCCCCCCCC4C3C2=O)cc1 (stereo not drawn) | > 10 µM (inactive) | > 10 µM (inactive) | > 10 µM (inactive) | > 10 µM (inactive) | > 10 µM (inactive) | > 10 µM (inactive) | – | – | > 10 µM (inactive) | > 10 µM (inactive) | > 10 µM (inactive) | > 10 µM (inactive) | > 10 µM (inactive) | > 10 µM (inactive) | > 10 µM (inactive) | > 10 µM (inactive) | > 10 µM (inactive) | > 10 µM (inactive) | > 10 µM (inactive) | > 10 µM (inactive)
CC(NC(=O)OC(C)(C)C)C(=O)C(N)=O (stereo not drawn) | > 100 µM (inactive) | – | – | 38.6 µM (inactive) | > 100 µM (inactive) | – | > 100 µM (inactive) | – | > 100 µM (inactive) | > 100 µM (inactive) | > 100 µM (inactive) | – | > 100 µM (inactive) | > 100 µM (inactive) | > 100 µM (inactive) | > 100 µM (inactive) | – | > 100 µM (inactive) | > 100 µM (inactive) | > 100 µM (inactive)
COc1cc2c(cc1OC)C1Cc3ccccc3CCN1CC2 (stereo not drawn) | > 100 µM (inactive) | 48.1 µM (inactive) | > 100 µM (inactive) | 92.9 µM (inactive) | > 100 µM (inactive) | > 100 µM (inactive) | 50 µM (inactive) | > 100 µM (inactive) | > 100 µM (inactive) | 39.1 µM (inactive) | > 100 µM (inactive) | > 100 µM (inactive) | > 100 µM (inactive) | > 100 µM (inactive) | 64.4 µM (inactive) | 44 µM (inactive) | 81.1 µM (inactive) | > 100 µM (inactive) | > 100 µM (inactive) | > 100 µM (inactive)
COc1ccc(C2=Nc3cc(C)c(C)cc3NC(c3ccccc3)C2)cc1 (stereo not drawn) | > 100 µM (inactive) | 20.1 µM (inactive) | > 100 µM (inactive) | 4.86 µM (inactive) | > 100 µM (inactive) | 40.5 µM (inactive) | > 100 µM (inactive) | 34.4 µM (inactive) | > 100 µM (inactive) | 27 µM (inactive) | > 100 µM (inactive) | > 100 µM (inactive) | 46.2 µM (inactive) | 43.4 µM (inactive) | 17.7 µM (inactive) | > 100 µM (inactive) | > 100 µM (inactive) | > 100 µM (inactive) | 28.7 µM (inactive) | > 100 µM (inactive)
CC(=O)c1cc2ccccc2oc1=O [3-ACETYLCOUMARIN] | > 100 µM (inactive) | > 100 µM (inactive) | > 100 µM (inactive) | > 100 µM (inactive) | > 100 µM (inactive) | > 100 µM (inactive) | > 100 µM (inactive) | > 100 µM (inactive) | > 100 µM (inactive) | > 100 µM (inactive) | – | > 100 µM (inactive) | > 100 µM (inactive) | > 100 µM (inactive) | > 100 µM (inactive) | > 100 µM (inactive) | > 100 µM (inactive) | > 100 µM (inactive) | > 100 µM (inactive) | > 100 µM (inactive)
